According to EP0070049A1, “Derivative of acetylsalicylic acid having an analgetic, antipyretic, antiphlogistic and bronchosecretolytic activity” (UNIONE CHIMICA MEDICAMENTI- DIFME-S.p.A., priority 1981, dated 1983):

Assays:
[1] = tested on: arbre bronchial de rats Wistar; experiment: Bronchosecretolytic activity: pulmonary excretion of fluorescein (Mawatari); assay type: in vivo; conditions: rats Wistar, 101,8 mg/Kg
Description: L'activité bronchosécrétolytique de l'acétylsalicylate de 2(o-méthoxy-phénoxy)éthanol a été évaluée en comparaison avec celle du gaïacoléthanol, sur la base de la mesure des variations de la quantité d'indicateur (fluorescéine) trouvée dans l'arbre bronchial de rats Wistar, recueillie au moyen d'un système de lavage standardisé, après injection parentérale de l'indicateur, et mesurée au moyen d'un spectrofluorométre, suivant la méthode décrite par H.Mawatari ("Expérimental studies on the expectorant action of several drugs", Kagoshima Daigakeu Igakeu Zasshi, volume 27, page 561, 1976). Les résultats de l'élaboration statistique des épreuves sont recueillis dans le suivant tableau 4,dans lequel l' excrétion pulmonaire de fluorescéine est exprimée en microgrammes ± la déviation standard, soit dans la quantité totale trouvée, soit dans la quantité pour-cent rapportée à 100 g de poids corporel des rats. Entre parenthèses sont indiquées les valeurs de l'augmentation pour-cent par rapport aux contrôles. Pour les autres valeurs est valable ce qui été précisé en relation au Tableau 1.

[2] = tested on: convulsions abdominales (writhings) induites dans le souris par une injection intrapéritonéale d'acide acétique; experiment: Acetic acid writhing test (analgesic activity, Koster and Anderson); assay type: in vivo; conditions: for Frequence writhings: souris, 60 minutes après l'administration, ± déviation standard
Description: L'activité analgésique de l'acétylsalicylate de 2(o-méthoxy-phénoxy)éthanol a été évaluée en comparaison avec celle de l'acide acétylsalicylique sur la base de la fréquence des convulsions abdominales (writhings) induites dans le souris par une injection intrapéritonéale d'acide acétique, suivant la technique décrite par Koster et Anderson (Fed. Proc., volume 18, page 412, 1959). Les résultats de l'élaboration statistique des épreuves sont indiqués dans le suivant Tableau 3, dans lequel la fréquence des convulsions est indiquée comme nombre de convulsions par minute ± la déviation standard, et a été mesurée 60 minutes après l'administration; pour les autres valeurs est valable ce qui a été spécifié en relation avec le Tableau 1.

[3] = tested on: température corporelle, augmentée par l'injection intraveineuse de nucléinate de sodium dans le lapin; experiment: Antipyretic activity: rise in body temperature induced by intravenous sodium nucleinate; assay type: in vivo; conditions: for Augmentation temperature corporelle - °C ± d.s. après 1 heure: 1 heure après l'administration; for Augmentation temperature corporelle - °C ± d.s. après 2 heures: 2 heures après l'administration; for Augmentation temperature corporelle - °C ± d.s. après 3 heures: 3 heures après l'administration; for Augmentation temperature corporelle - °C ± d.s. après 4 heures: 4 heures après l'administration
Description: L'activité antipyrétique de l'acétylsalicylate de 2(o-méthoxy-phénoxy)éthanol a été evaluée en comparaison avec celle de l'acide acétylsalicylique suivant la méthode, universellement employée, de la mesure de la variation de la température corporelle, augmentée par 1' injection intraveineuse de nucléinate de sodium dans le lapin. Les résultats de l'élaboration statistique des épreuves sont indiqués dans le suivant Tableau 2, dans lequel l'augmentation de la température corporelle est indiquée en °C ± la déviation standard, et a été mesurée 1, 2, 3 et 4 heures après l'administration; pour les autres valeurs est valable ce qui a été spécifié en relation avec le Tableau 1.

[4] = tested on: oedème induit par carraghénine injectée dans la patte de rats; experiment: Carrageenan-induced rat paw oedema (antiphlogistic activity, Winter et al); assay type: in vivo; conditions: voie orale; for Volume de l'oedème - ml ± d.s. après 3 heures: 3 heures après le traitement oedémigène; for Volume de l'oedème - ml ± d.s. après 6 heures: 6 heures après le traitement oedémigène
Description: L'activité antiphlogistique de l'acétylsalicylate de 2(o-méthoxy-phénoxy) éthanol a été évaluée en comparaison avec celle de l'acide acétylsalicylique sur la base de la variation de volume de l'oedème induit par carraghénine injectée dans la patte de rats, suivant la technique décrite par Winter et al (Proc. Soc. Exp. Biol. Med., volume III, page 544, 1962). Les résultats de l'élaboration des épreuves sont indiqués dans le Tableau 1, dans lequel le volume de l'oedème est indiqué en millilitres z la déviation standard, et il a été mesuré 3, 4,5 et 6 heures après le traitement oedémigène; la dose de substance est indiquée en milligrammes de substance administrée par voie orale pour chaque kilogramme de poids corporel des rats; les valeurs marquées par * correspondent à une probabilité d'erreur p < 0,05, les valeurs marquées correspondent à une probabilité d'erreur p < 0,01, calculées sur les valeurs des contrôles, et les valeurs indiquées entre parenthèses indiquent l'inhibition en pour-cent calculée par rapport aux contrôles.

rats = conditions: rat, in vivo, 500 mg/kg
Description: La toxicité subaiguë de l'acétylsalicylate de 2(o-méthoxy-phénoxy)éthanol a été évaluée en comparaison avec celle de l'acide acétylsalicylique en administrant à des rats, par voie orale, des doses journalières de substance pour 10 jours, et en relevant le nombre des animaux morts, la diminution moyenne de poids des animaux traités et l'incidence des lésions gastriques relevées, distinguées en simple hyperémie, hyperémie accompagnée par hémorragie et hémorragie accompagnée par ulcérations. Les résultats des épreuves sont indiqués dans le Tableau 5, dans lequel la dose de substance administrée est exprimée en mg de substance par kg de poids corporel et par jour, et la diminution moyenne de poids corporel à la fin du traitement est exprimée en grammes.

## COc1ccccc1OCCO [Gaïacol-éthanol, gaïacoléthanol, reference compound]
[1]
  augmentation pour-cent par rapport aux contrôles (excrétion pulmonaire de fluorescéine, quantité totale): +72,2 pour-cent
[1]; rapportée à 100 g de poids corporel, ± déviation standard
  Excrétion pulmonaire de fluorescéine Quantité pour-cent µg/100 g: 0,202 ± 0,034 µg/100 g
[1]; ± déviation standard
  Excrétion pulmonaire de fluorescéine Quantité totale µg: 0,434 ± 0,064 µg

## CC(=O)Oc1ccccc1C(=O)O [Acide acétyl-salicylique, acide acétylsalicylique, reference compound]
[2]; 1 h
  inhibition at 100 mg/kg: 30%
  inhibition at 200 mg/kg: 44%
[2]; 100 mg/Kg
  Frequence writhings: *20,5 ± 6,7 convulsions par minute
[2]; 200 mg/Kg
  Frequence writhings: **16,4 ± 5,8 convulsions par minute
[3]; 100 mg/Kg
  inhibition en pour-cent calculée par rapport aux contrôles, après 1 heure: 40 pour-cent
  Augmentation temperature corporelle - °C ± d.s. après 1 heure: 0,75 ± 0,16 °C
  inhibition en pour-cent calculée par rapport aux contrôles, après 2 heures: 46 pour-cent
  Augmentation temperature corporelle - °C ± d.s. après 2 heures: 0,78 ± 0,17 °C
  inhibition en pour-cent calculée par rapport aux contrôles, après 3 heures: 43 pour-cent
  Augmentation temperature corporelle - °C ± d.s. après 3 heures: 0,94 ± 0,12 °C
  inhibition en pour-cent calculée par rapport aux contrôles, après 4 heures: 26 pour-cent
  Augmentation temperature corporelle - °C ± d.s. après 4 heures: 0,55 ± 0,1 °C
[3]; 200 mg/Kg
  inhibition en pour-cent calculée par rapport aux contrôles, après 1 heure: 50 pour-cent
  Augmentation temperature corporelle - °C ± d.s. après 1 heure: 0,62 ± 0,13 °C
  inhibition en pour-cent calculée par rapport aux contrôles, après 2 heures: 51 pour-cent
  Augmentation temperature corporelle - °C ± d.s. après 2 heures: 0,71 ± 0,18 °C
  inhibition en pour-cent calculée par rapport aux contrôles, après 3 heures: 43 pour-cent
  Augmentation temperature corporelle - °C ± d.s. après 3 heures: 0,93 ± 0,16 °C
  inhibition en pour-cent calculée par rapport aux contrôles, après 4 heures: 31 pour-cent
  Augmentation temperature corporelle - °C ± d.s. après 4 heures: 0,52 ± 0,07 °C
[4]; 100 mg/Kg
  inhibition en pour-cent calculée par rapport aux contrôles, après 3 heures: 44,0 pour-cent
  Volume de l'oedème - ml ± d.s. après 3 heures: 0,380 ± 0,21 ml
  inhibition en pour-cent calculée par rapport aux contrôles, après 6 heures: 41,0 pour-cent
  Volume de l'oedème - ml ± d.s. après 6 heures: 0,285 ± 0,18 ml
[4]; 100 mg/Kg, 4,5 heures
  inhibition en pour-cent calculée par rapport aux contrôles, après 4,5 heures: 35,0 pour-cent
[4]; 100 mg/Kg, 4,5 heures après le traitement oedémigène
  Volume de l'oedème - ml ± d.s. après 4,5 heures: 0,395 ± 0,14 ml
[4]; 200 mg/Kg
  inhibition en pour-cent calculée par rapport aux contrôles, après 3 heures: 56,5 pour-cent
  Volume de l'oedème - ml ± d.s. après 3 heures: 0,297 ± 0,17 ml
  inhibition en pour-cent calculée par rapport aux contrôles, après 6 heures: 43,0 pour-cent
  Volume de l'oedème - ml ± d.s. après 6 heures: 0,275 ± 0,18 ml
[4]; 200 mg/Kg, 4,5 heures
  inhibition en pour-cent calculée par rapport aux contrôles, après 4,5 heures: 39,0 pour-cent
[4]; 200 mg/Kg, 4,5 heures après le traitement oedémigène
  Volume de l'oedème - ml ± d.s. après 4,5 heures: 0,370 ± 0,09 ml
rats
  Lésions gastriques Hyperémie: 4
  Lésions gastriques Hyperémie + hémorragie: 3
  Lésions gastriques Hémorragie + ulcérations: 2
  Nombre animaux morts: 6
  Δ poids moyenne: -30 grammes
